The record followed here is patent publication US20250282834A1, “PEPTIDE INHIBITORS FOR CHROMODOMAIN HELICASE DNA BINDING PROTEIN 4 (CHD4)” (THE REGENTS OF THE UNIVERSITY OF CALIFORNIA, priority 2022, published 2025).

Non-standard residues stand in square brackets, D forms with d. Residues, ends and D or L forms follow the SMILES beside them. No end group written: not given here. *: point of attachment. Orn = NCCC[C@H](N)C(=O)O; Cbz = O=C(OCc1ccccc1)*; βAla = NCCC(=O)O; CH2F = FC*

The target in one assay is T1, CHD4 (Homo sapiens, UniProt Q14839).
T1 construct: endogenous in cells; host or cells: BC3, BCBL-1
T1 sequence (Q14839 whole entry): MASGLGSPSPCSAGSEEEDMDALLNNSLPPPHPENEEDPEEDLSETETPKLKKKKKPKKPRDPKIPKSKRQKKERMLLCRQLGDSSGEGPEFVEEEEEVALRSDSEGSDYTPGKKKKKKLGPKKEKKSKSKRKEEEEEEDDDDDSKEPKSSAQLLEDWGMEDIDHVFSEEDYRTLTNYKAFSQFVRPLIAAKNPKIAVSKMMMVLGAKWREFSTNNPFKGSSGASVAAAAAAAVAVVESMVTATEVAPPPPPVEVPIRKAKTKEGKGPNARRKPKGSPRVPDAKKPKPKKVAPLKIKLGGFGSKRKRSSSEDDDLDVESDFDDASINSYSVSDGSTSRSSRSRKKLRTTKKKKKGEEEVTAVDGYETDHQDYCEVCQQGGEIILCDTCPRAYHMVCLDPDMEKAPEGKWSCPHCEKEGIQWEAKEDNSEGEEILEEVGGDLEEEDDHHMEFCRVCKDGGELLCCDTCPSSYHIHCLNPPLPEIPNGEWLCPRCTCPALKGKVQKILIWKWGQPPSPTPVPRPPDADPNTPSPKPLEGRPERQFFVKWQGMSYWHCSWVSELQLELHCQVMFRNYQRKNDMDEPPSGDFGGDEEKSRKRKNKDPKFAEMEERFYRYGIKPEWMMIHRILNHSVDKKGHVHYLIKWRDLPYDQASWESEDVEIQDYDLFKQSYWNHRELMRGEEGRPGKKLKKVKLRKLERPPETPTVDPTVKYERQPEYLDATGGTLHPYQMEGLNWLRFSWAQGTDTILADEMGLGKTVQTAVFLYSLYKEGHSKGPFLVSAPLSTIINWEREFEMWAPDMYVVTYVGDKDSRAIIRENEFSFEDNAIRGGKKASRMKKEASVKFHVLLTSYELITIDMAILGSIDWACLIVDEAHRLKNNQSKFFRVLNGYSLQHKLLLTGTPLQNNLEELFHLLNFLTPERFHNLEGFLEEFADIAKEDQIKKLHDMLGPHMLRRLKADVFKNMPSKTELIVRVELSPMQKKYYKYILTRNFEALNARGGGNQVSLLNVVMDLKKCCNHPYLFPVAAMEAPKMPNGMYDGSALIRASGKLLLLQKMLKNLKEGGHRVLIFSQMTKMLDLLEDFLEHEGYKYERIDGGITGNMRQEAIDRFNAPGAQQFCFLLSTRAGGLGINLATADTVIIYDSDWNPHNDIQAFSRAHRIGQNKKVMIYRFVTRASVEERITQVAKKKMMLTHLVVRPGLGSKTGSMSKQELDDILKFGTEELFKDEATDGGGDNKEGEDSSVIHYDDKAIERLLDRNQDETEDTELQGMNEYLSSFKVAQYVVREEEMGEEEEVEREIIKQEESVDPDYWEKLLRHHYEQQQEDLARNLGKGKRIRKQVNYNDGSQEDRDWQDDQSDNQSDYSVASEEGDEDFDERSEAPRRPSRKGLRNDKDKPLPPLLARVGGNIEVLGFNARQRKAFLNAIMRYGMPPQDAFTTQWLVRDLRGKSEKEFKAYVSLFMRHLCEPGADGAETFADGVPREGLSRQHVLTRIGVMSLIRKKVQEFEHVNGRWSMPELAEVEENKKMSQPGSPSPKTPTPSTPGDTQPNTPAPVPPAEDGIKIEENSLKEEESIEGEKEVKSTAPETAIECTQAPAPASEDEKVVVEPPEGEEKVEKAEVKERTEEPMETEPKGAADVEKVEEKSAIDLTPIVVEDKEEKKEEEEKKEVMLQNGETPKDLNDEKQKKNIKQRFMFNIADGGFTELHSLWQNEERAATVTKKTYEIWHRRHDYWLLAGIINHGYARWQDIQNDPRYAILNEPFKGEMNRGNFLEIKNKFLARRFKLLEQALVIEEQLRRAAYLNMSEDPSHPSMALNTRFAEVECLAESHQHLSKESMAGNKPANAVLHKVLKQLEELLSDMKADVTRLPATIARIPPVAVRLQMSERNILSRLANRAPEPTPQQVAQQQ
Description: CHD4 and LANA protein expression by IFA and western blotting in PEL cells. The settings on record: for recovery of full-length CHD4 by inhibitor pretreatment before VGN73: BC3 cells, Z-VAD-FMK 50 μM or bortezomib 25 nM 1 hour, then VGN73 18 μM 8 hours. In kind it is cell-based. As to the method: FIG. 3 Effect of VGN73 on CHD4 and LANA protein in tissue culture. FIG. 3. Amount of CHD4 and LANA protein expression was evaluated by IFA. BC3 cells were treated with VGN73 (18 μM) or mutant peptide (18 μM) for 24 hours. Then the cells were stained with the indicated antibodies. The scale is indicated in the panel. Cell volume. CHD4 and LANA signal intensity were compared. **; p<0.01, ***; p<0.001 versus the VGN73 group. FIG. 3b. Amount of CHD4 and LANA protein expression in total cell lysates was evaluated by western blotting. BC3 and BCBL-1 cells were treated with VGN73 at a concentration of IC50 or starved condition for 24 hours. The respective protein band was confirmed by immunoblotting with anti-CHD4 and anti-LANA antibody. FIG. 3c. Evaluating of caspase and proteasome in CHD4 cleavage by VGN73. BC3 cells were pretreated with pan-caspase inhibitor. Z-VAD-FMK (50 μM) or proteasome inhibitor, bortezomib (25 nM) for 1 hour, followed by treated with VGN73 (18 μM) for 8 hours. The respective protein band was confirmed by immunoblotting with anti-CHD4 antibody.
BC3 cells and BCBL-1 cells were treated with VGN73 at the concentration of IC50 for 24 hours. These cells were also treated with VGN73 in media without FBS. To evaluate the effect of VGN73 on CHD4 and LANA proteins in tissue culture, IFA and western blotting were carried out, and these gene expressions were evaluated by RT-qPCR. Moreover, BC3 cells were pretreated with pan-caspase inhibitor, Z-VAD-FMK (50 μM) or proteasome inhibitor, bortezomib (25 nM) for 1 hour, followed by treated with VGN73 (18 μM) for 8 hours. BC3 cells were pretreated with lysosome inhibitor, chloroquine (7.5 μM) for 1 hour, followed by treated with VGN73 (18 μM) for 24 hours. […]
To evaluate subcellular peptide localization, IFA was carried out (FIG. 2d). […] The exposure settings and image acquisition protocols were fixed in each imaging study to enable quantitative analysis. Mean LANA and CHD4 fluorescence (measured in arbitrary units, or A.U.) per cell was subsequently calculated using onboard software and/or NIH Image (FIG. 3a(b)). […]
(A western blot detects proteins with antibodies after separation by electrophoresis.)

Another assay addresses T2, full-length Flag-CHD4 (Homo sapiens, UniProt Q14839).
T2 construct: made in house; host or cells: Sf9 (recombinant baculovirus)
Description: Biolayer interferometry (BLI) binding kinetics of peptides to CHD4. The settings on record: N-biotinylated peptides immobilized, sequentially diluted full-length Flag-CHD4. As to the method: We next examined peptide binding sites on the CHD4 domain and measured affinity to further confirm the interaction. Multiple CHD4 deletion proteins were expressed and purified from recombinant baculovirus-infected Sf9 cells with Flag-agarose beads (FIG. 7a). An equal molecular amount of recombinant proteins was coated on an ELISA plate and increasing concentrations of biotinylated peptides were incubated. […] Binding affinity to the fill-length CHD4 was also calculated with Bio-Layer Interferometry (BLI). […] The N-biotinylated VGN73 or control peptides were first immobilized on a streptavidin-coated chip, and sequentially diluted full-length Flag-CHD4 proteins were applied. The interaction was then detected with interferometry.
To evaluate of binding kinetics of VGN73 and mutant peptide to CHD4, assays were carried out by biolayer interferometry (BLI) on Octet-Red 384 (ForteBio, CA, USA) at 30° C. with shaking at 1,000 RPM. Streptavidin (SA) tips (Sartorius, Goettingen, Germany) were dipped in 200 μL of biotinylated peptide (VGN73, mutant or TAT) solution (1 μM in 1× kinetic buffer) for the loading step. […] Binding kinetics was evaluated using a 1:1 binding model by ForteBio Data Analysis 8.1 software to obtain the dissociation constant KD.
A general note: BLI is a label-free optical method that tracks binding on a fibre tip over time.

For assay [1], the system named is primary effusion lymphoma (PEL) cells (BC3, BCBL-1). It is filed as cell-based. As to the method:
FIG. 4 VGN73 inhibits cell growth on various cancer cell types and induces apoptosis and autophagy in BC3 cells. FIG. 4a. MT assays were performed with the indicated cell lines treated with various VGN73 and mutant peptide concentrations for 24 hours. The OD of mock-treated samples were set as 100%, and OD from detergent-treated cells were set as 0%. Mean percentage viability±SD was calculated for each treatment (n=3 samples/treatment). FIG. 4b. VGN73 induces apoptosis. BC3 cells were incubated with of VGN73 (18 μM) for 0, 1, 4, and 24 hours, followed by measurements of percentage apoptosis induction (Annexin V staining) by flow cytometry. Median percentage apoptosis was calculated for each treatment time (n=3 samples/treatment time) (a). […] Cleaved caspase 3 were calculated by normalizing to untreated sample, and untreated sample set as 100% (b). […] Median percentage apoptosis was calculated for each treatment time (n=3 samples/treatment) (a). […] ratios were calculated by normalizing to untreated sample, and untreated sample set as 100% (b). […] Cell viability were determined by MTT assay (n=5 samples/treatment). *; p<0.05. **; p<0.01 versus the control group, #; p<0.05 versus the Z-VAD-FMK group.
The cytotoxic activity of VGN73 and mutant peptide were measured using the MTT assay. […] The optical densities (ODs) were measured at 570 nm with a Benchmark Plus Microplate Spectrophotometer (Bio-Rad). […]

T2 sequence (Q14839 whole entry): as above

As to `CC(C)C[C@H](NC(=O)[C@H](Cc1ccccc1)NC(=O)c1cnccn1)B(O)O` [proteasome inhibitor, bortezomib], the “recovery of full-length CHD4 by inhibitor pretreatment before VGN73” value on CHD4 was “not a proteasome inhibitor”.

For “{d-Arg}KKRR{ORN]RRR{β-Ala} (RKKRRXRRRA; d-Arg, ornithine, beta-Ala non-natural residues; Description of sequence: modified TAT amino acid sequence; SITE 1 d-arginine; MOD_RES 6 ORN; MOD_RES 10 beta-alanine)”, the “binding to CHD4 by BLI” value with full-length Flag-CHD4 was “not mutant or TAT alone binds to CHD4”.

As to “{d-Arg}KKRR{ORN}RRR{β-Ala}AKHAVISAGNDPYGLKK ([dR]KKRR[Orn]RRR[βAla]AKHAVISAGNDPYGLKK) [mutant peptide, mutant peptide with three amino acid changes at conserved amino acids]”, in the assay with full-length Flag-CHD4, the “binding to CHD4 by BLI” value is reported as “mutations eliminated the interaction”. Moreover, the “CHD4 cleavage (western blotting, total cell lysates)” value with CHD4 (BC3 and BCBL-1 cells, IC50 concentration, 24 hours) was “did not have such effects”. Besides, the “cancer cell death in vitro tissue culture” value in assay [1] is listed as “not mutant peptide”.

Take `COC(=O)C[C@H](NC(=O)[C@H](C)NC(=O)[C@@H](NC(=O)OCc1ccccc1)C(C)C)C(=O)CF` [Z-VAD-FMK] (Cbz-Val-Ala-Asp(OMe)-CH2F): the “recovery of full-length CHD4 by inhibitor pretreatment before VGN73” value at CHD4 was “recovered full-length CHD4”. Further, the “rescue from VGN73 cell death by Z-VAD-FMK pretreatment (MTT)” value in assay [1] (BC3 and BCBL-1, Z-VAD-FMK 40 μM 1 hr, VGN73 18 or 13 μM) was “partially rescued BC3 and BCBL-1 from cell death”.
